In brackets after ≈: the same amount, converted by molar mass.
Columns and labels:
C. albicans (90028) = experiment: MIC, micro-broth dilution; format: cell-based; details: Candida albicans, 35° C., 24 hours, read-out: ANTIMICROBIAL ACTIVITY (MIC)
Procedure: (§1) The antimicrobial activity of the compounds according to the present invention were compared with the results obtained for squalamine as reported in Proc. Nat. Acad. Sci. USA 90:1354 (1993), supra, the disclosure of which is incorporated in toto herein. The data reported in the following table is the minimum inhibitory concentration (MIC) required for complete inhibition of microbial growth. The MIC was determined utilizing known micro-broth dilution methods in which inocula of 10^6 /ml of the test organism were incubated in 0.5× trypticase soy broth at 35° C. for 24 hours. MIC's were also tested under various pH conditions, with calcium chloride or magnesium chloride, or with immobilized horse serum.
(§2) The numbers in parentheses contained in the table correspond to accession numbers with the American Type Culture Collection (reference strains were either obtained from the American Type Culture Collection or from the Microbiology Laboratory at Memorial Sloan-Kettering Cancer Center; Bacterial strains were maintained on Columbia 5% sheep blood agar plates, and fungi were maintained on Sabouraud Dextrose agar plates).

C. neoformans (M68979) = experiment: MIC, micro-broth dilution; format: cell-based; details: Cryptococcus neoformans, 24 h, read-out: ANTIMICROBIAL ACTIVITY (MIC)
Procedure: as §1, §2

E. coli (25922) = experiment: MIC, micro-broth dilution; format: cell-based; details: Escherichia coli, 35° C., 24 hours, read-out: ANTIMICROBIAL ACTIVITY (MIC)
Procedure: as §1, §2

P. aeruginosa (2853) = experiment: MIC, micro-broth dilution; format: cell-based; details: Pseudomonas aeruginosa, 24 h, read-out: ANTIMICROBIAL ACTIVITY (MIC)
Procedure: as §1, §2

P. vulgaris (13315) = experiment: MIC, micro-broth dilution; format: cell-based; details: Proteus vulgaris, 35° C., 24 hours, read-out: ANTIMICROBIAL ACTIVITY (MIC)
Procedure: as §1, §2

S. aureus (25923) = experiment: MIC, micro-broth dilution; format: cell-based; details: Staphylococcus aureus, 35° C., 24 hours, read-out: ANTIMICROBIAL ACTIVITY (MIC)
Procedure: as §1, §2

S. aureus (29213) = experiment: MIC, micro-broth dilution; format: cell-based; details: Staphylococcus aureus, 24 h, read-out: ANTIMICROBIAL ACTIVITY (MIC)
Procedure: as §1, §2

S. epidermidis (12228) = experiment: MIC, micro-broth dilution; format: cell-based; details: Staphylococcus epidermidis, 35° C., 24 hours, read-out: ANTIMICROBIAL ACTIVITY (MIC)
Procedure: as §1, §2

S. marcescens (13880) = experiment: MIC, micro-broth dilution; format: cell-based; details: Serratia marcescens, 24 h, read-out: ANTIMICROBIAL ACTIVITY (MIC)
Procedure: as §1, §2

[1] = Hemolytic activity, minimal hemolytic concentration (MHC); format: cell-based, sheep; details: for MCC at 24 h: sheep, red blood cells;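 as to MCC: MCC here is the minimal hemolytic concentration (MHC)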
Procedure: Hemolytic activity of the squalamine mimics according to the present invention were also studied by incubating sheep red blood cells for 24 hours at 37° C. in saline (final concentration of 0.5%) with or without respective concentrations of the squalamine mimics. The minimal hemolytic concentration (MHC) was determined as the lowest concentration of a mimic that raised visible hemolysis.

A. fumigatus (H1120) = experiment: MIC, micro-broth dilution; format: cell-based; details: Aspergillus fumigatus, 35° C., 24 hours, read-out: ANTIMICROBIAL ACTIVITY (MIC)
Procedure: as §1, §2

A. fumigatus (H29709) = experiment: MIC, micro-broth dilution; format: cell-based; details: Aspergillus fumigatus, 35° C., 24 hours, read-out: ANTIMICROBIAL ACTIVITY (MIC)
Procedure: as §1, §2

C. neoformans (90012) = experiment: MIC, micro-broth dilution; format: cell-based; details: Cryptococcus neoformans, 24 h, read-out: ANTIMICROBIAL ACTIVITY (MIC)
Procedure: as §1, §2

E. cloacae (13047) = experiment: MIC, micro-broth dilution; format: cell-based; details: Enterobacter cloacae, 35° C., 24 hours, read-out: ANTIMICROBIAL ACTIVITY (MIC)
Procedure: as §1, §2

E. faecalis (29212) = experiment: MIC, micro-broth dilution; format: cell-based; details: Enterococcus faecalis, 35° C., 24 hours, read-out: ANTIMICROBIAL ACTIVITY (MIC)
Procedure: as §1, §2

E. faecium (T6480-9) = experiment: MIC, micro-broth dilution; format: cell-based; details: Enterococcus faecium, 35° C., 24 hours, read-out: ANTIMICROBIAL ACTIVITY (MIC)
Procedure: as §1, §2

K. pneumoniae (13883) = experiment: MIC, micro-broth dilution; format: cell-based; details: Klebsiella pneumoniae, 24 h, read-out: ANTIMICROBIAL ACTIVITY (MIC)
Procedure: as §1, §2

P. aeruginosa (10145) = experiment: MIC, micro-broth dilution; format: cell-based; details: Pseudomonas aeruginosa, 35° C., 24 hours, read-out: ANTIMICROBIAL ACTIVITY (MIC)
Procedure: as §1, §2

S. agalactiae (13813) = experiment: MIC, micro-broth dilution; format: cell-based; details: Streptococcus agalactiae, 35° C., 24 hours, read-out: ANTIMICROBIAL ACTIVITY (MIC)
Procedure: as §1, §2

S. aureus (H20809) = experiment: MIC, micro-broth dilution; format: cell-based; details: Staphylococcus aureus, 24 h, read-out: ANTIMICROBIAL ACTIVITY (MIC)
Procedure: as §1, §2

S. pneumoniae (6305) = experiment: MIC, micro-broth dilution; format: cell-based; details: Streptococcus pneumoniae, 35° C., 24 hours, read-out: ANTIMICROBIAL ACTIVITY (MIC)
Procedure: as §1, §2

S. pyrogenes (19615) = experiment: MIC, micro-broth dilution; format: cell-based; details: 24 h, read-out: ANTIMICROBIAL ACTIVITY (MIC)
Procedure: as §1, §2

SMILES | MIC (C. albicans (90028)) | MIC (C. neoformans (M68979)) | MIC (E. coli (25922)) | MIC (P. aeruginosa (2853)) | MIC (P. vulgaris (13315)) | MIC (S. aureus (25923)) | MIC (S. aureus (29213)) | MIC (S. epidermidis (12228)) | MIC (S. marcescens (13880)) | MIC (A. fumigatus (H1120)) | MIC (A. fumigatus (H29709)) | MIC (C. neoformans (90012)) | MIC (E. cloacae (13047)) | MIC (E. faecalis (29212)) | MIC (E. faecium (T6480-9)) | MIC (K. pneumoniae (13883)) | MIC (P. aeruginosa (10145)) | MIC (S. agalactiae (13813)) | MIC (S. aureus (H20809)) | MIC (S. pneumoniae (6305)) | other results
C[C@H](C(=O)NCCCNCCCCNCCCN)[C@H]1CC[C@H]2[C@@H]3CC=C4C[C@@H](O)CC[C@]4(C)[C@H]3CC[C@]12C [SM-1, 23,24-Bisnor-3β-ol-5-cholenic acid 3-ol spermine conjugate] | 100 µg/mL (≈ 188 µM) | 6.25 µg/mL (≈ 11.8 µM) | 12.5 µg/mL (≈ 23.5 µM) | 1.56 µg/mL (≈ 2.94 µM) | 25 µg/mL (≈ 47.1 µM) | 3.13 µg/mL (≈ 5.9 µM) | 6.25 µg/mL (≈ 11.8 µM) | 1.56 µg/mL (≈ 2.94 µM) | > 100 µg/mL |  |  |  |  |  |  |  |  |  |  |  | minimal hemolytic concentration (MHC) at 24 h ([1]; sheep red blood cells, 24 hours at 37° C. in saline): 100 µg/mL
C[C@H](C(=O)NCCNCCNCCN)[C@H]1CC[C@H]2[C@@H]3CC=C4C[C@@H](O)CC[C@]4(C)[C@H]3CC[C@]12C [SM-5] | > 100 µg/mL | > 100 µg/mL | 100 µg/mL (≈ 211 µM) | 25 µg/mL (≈ 52.7 µM) | > 100 µg/mL | 50 µg/mL (≈ 105 µM) | 100 µg/mL (≈ 211 µM) | 25 µg/mL (≈ 52.7 µM) | > 100 µg/mL | > 100 µg/mL | > 100 µg/mL | > 100 µg/mL | > 100 µg/mL | > 100 µg/mL | > 100 µg/mL | > 100 µg/mL | 25 µg/mL (≈ 52.7 µM) | > 100 µg/mL | > 100 µg/mL | > 100 µg/mL | MIC (S. pyrogenes (19615)): 6.25 µg/mL (≈ 13.2 µM); MCC at 24 h [1]: > 100 µg/mL
C[C@H](CCC(=O)NCCCNCCCCNCCCN)[C@H]1CC[C@H]2[C@@H]3CC[C@@H]4C[C@H](OS(=O)(=O)O)CC[C@]4(C)[C@H]3C[C@H](OS(=O)(=O)O)[C@]12C [SM-8] | 100 µg/mL (≈ 136 µM) | 50 µg/mL (≈ 67.8 µM) | > 100 µg/mL | 25 µg/mL (≈ 33.9 µM) | 50 µg/mL (≈ 67.8 µM) | 25 µg/mL (≈ 33.9 µM) | 25 µg/mL (≈ 33.9 µM) | 25 µg/mL (≈ 33.9 µM) | > 100 µg/mL | > 100 µg/mL | > 100 µg/mL | 50 µg/mL (≈ 67.8 µM) | > 100 µg/mL | > 100 µg/mL | 100 µg/mL (≈ 136 µM) | 50 µg/mL (≈ 67.8 µM) | 100 µg/mL (≈ 136 µM) | 50 µg/mL (≈ 67.8 µM) | 25 µg/mL (≈ 33.9 µM) | 50 µg/mL (≈ 67.8 µM) | MIC (S. pyrogenes (19615)): 6.25 µg/mL (≈ 8.48 µM); MCC at 24 h [1]: > 100 µg/mL
C[C@H](CCCNCCCCN)[C@H]1CC[C@H]2[C@@H]3CC[C@@H]4C[C@H](O)CC[C@]4(C)[C@H]3C[C@H](O)[C@]12C [SM-9H] | 3.13 µg/mL (≈ 6.98 µM) | 0.78 µg/mL (≈ 1.74 µM) | 25 µg/mL (≈ 55.7 µM) | 6.25 µg/mL (≈ 13.9 µM) | 12.5 µg/mL (≈ 27.9 µM) | 1.56 µg/mL (≈ 3.48 µM) | 1.56 µg/mL (≈ 3.48 µM) | 1.56 µg/mL (≈ 3.48 µM) | > 100 µg/mL | 12.5 µg/mL (≈ 27.9 µM) | 6.25 µg/mL (≈ 13.9 µM) | 0.78 µg/mL (≈ 1.74 µM) | 100 µg/mL (≈ 223 µM) | 6.25 µg/mL (≈ 13.9 µM) | 25 µg/mL (≈ 55.7 µM) | 50 µg/mL (≈ 111 µM) | 12.5 µg/mL (≈ 27.9 µM) | 3.13 µg/mL (≈ 6.98 µM) | 3.13 µg/mL (≈ 6.98 µM) | 6.25 µg/mL (≈ 13.9 µM) | MIC (S. pyrogenes (19615)): 0.78 µg/mL (≈ 1.74 µM); MCC at 24 h [1]: 50 µg/mL
